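Cultured in 96-well plates, cells were exposed to test compound for 48 hours across five concentrations. GI50 = concentration required for 50% inhibition of growth. TGI: total growth inhibition.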
System: MDA-MB-468 breast
Assay: inhibition of tumour cell growth, NCI panel, 48 h

SMILES	GI50	TGI
O=C1CC(=O)N(C(=O)c2nn(-c3ccc(Cl)cc3)cc2O)N1	716 nM	> 66500 nM
CCCN(CCC)c1ccc(/C=C/c2ccc3cc(OCC)ccc3n2)cc1	80100 nM	> 100000 nM
COc1ccc(-c2cc(-c3ccc(Cl)cc3)nc(SCCCC(=O)NO)n2)cc1	1490 nM	4340 nM
CC(=Nc1ccccc1)C1=C(O)C(Cc2ccc(O)cc2)NC1=O (configuration not stated)	24.4 nM	87.4 nM
CCOC(=O)NC1C2CC(=O)OC(O2)C1OC(C)=O (configuration not stated)	> 100000 nM	> 100000 nM
CC(C)C[C@H](NC(=O)Cn1ccc(NCc2ccccc2)cc1=O)B(O)O	370 nM	1780 nM
Cc1c2c(cc[n+]1Cc1ccccc1)c1ccc(OCc3ccccc3)cc1n2Cc1ccccc1	191 nM	915 nM
Cc1nc2sc(C(=O)Nc3cccc4ccccc34)c(N)c2cc1C(O)c1ccccc1 (configuration not stated)	35.1 nM	15200 nM
O=C1NC(=O)C(c2ccccc2Cl)=C1Nc1cc(Cl)c(O)c(Cl)c1	6290 nM	> 21400 nM
Cc1ccc2c(-c3ccnc(Nc4ccccc4)n3)c(-c3ccc(F)cc3)nn2n1	961 nM	6350 nM
COc1cc(-c2ccc(-c3ccc(C(=N)N)nc3)s2)cc(OC)c1OC	1740 nM	4410 nM
C=C1C(=O)O[C@H]2[C@H]1CC/C(COC(=O)C(=O)c1cn(C)c3ccc(Cl)cc13)=C\CC[C@@]1(C)O[C@@H]21	248 nM	637 nM
CCN(Cc1ccccc1)c1ccc(CO)c(Cl)c1	20.2 nM	55.9 nM
C=C(CN1CCN(c2cccc(C(F)(F)F)n2)CC1)c1ccc(C(=O)Nc2ccccc2N)cc1	1190 nM	7280 nM
COc1cc(N2CCC(N3CCN(C)CC3)CC2)ccc1Nc1ncnc(Nc2ccccc2S(=O)(=O)C(C)C)n1	4780 nM	20300 nM
C=CCn1c(SCC(=O)Nc2ccc(C(=O)/C=C/c3cc(OC)c(OC)c(OC)c3)cc2)nnc1-c1c[nH]c2ccccc12	1770 nM	4210 nM
Cc1ccc(Cc2cnc(NC(=O)/C=C/c3cccc(C)c3)s2)cc1	309 nM	

SMILES	GI50	TGI
C=C1C(=O)O[C@H]2[C@H]1CC/C(COC(=O)c1cc3ccccc3o1)=C\CC[C@@]1(C)O[C@@H]21	1500 nM	3720 nM
CCC(=O)Nc1ccccc1C#C/C=C\C#Cc1ccccc1SC	3120 nM	> 100000 nM
C=C(NC(=O)C(=C)NC(=O)c1csc(C2=NC3c4csc(n4)C4NC(=O)c5csc(n5)C(C(C)(O)C(C)O)NC(=O)C5CSC(=N5)C(=CC)NC(=O)C(C(C)O)NC(=O)c5csc(n5)C3(CC2)NC(=O)C(C)NC(=O)C(=C)NC(=O)C(C)NC(=O)C(C(C)CC)NC2C=Cc3c(C(C)O)cc(nc3C2O)C(=O)OC4C)n1)C(N)=O (configuration not stated)	1580 nM	3630 nM
COc1cccc(/C=C/[N+](=O)[O-])c1	2300 nM	5210 nM
COc1ccc(NC([Se])=NC23CC4CC(CC(C4)C2)C3)cc1	1350 nM	3420 nM
COc1cc2ncn(-c3cc(O[C@@H](C)c4ccccc4Cl)c(C(N)=O)s3)c2cc1OC	120 nM	1610 nM
CC(=O)N1C/C(=C/c2ccc(Cl)cc2)C(=O)/C(=C/c2ccc(Cl)cc2)C1	469 nM	1760 nM
NC1CCC(Nc2nc(NCc3ccc(-c4ccccc4O)nc3)c3ncn(C4CCCC4)c3n2)CC1 (configuration not stated)	< 10 nM	12.9 nM
C[C@@H](O)[C@H](NC(=O)N[C@@H](CC(N)=O)c1nc([C@@H](N)CO)no1)C(=O)O	> 100000 nM	> 100000 nM
O=S(=O)(NCCCNc1nccc(-c2c(-c3ccc(F)c(O)c3)nc3sccn23)n1)c1ccc(F)cc1	2620 nM	7350 nM
C=C(C)[C@@H]1CC[C@]2(C(=O)O)CC[C@]3(C)[C@H](CC[C@@H]4[C@@]5(C)CCC(NC(=O)c6cccc(OC(C)=O)c6OC(C)=O)C(C)(C)[C@@H]5CC[C@]43C)[C@@H]12 (some centres not stated)	424 nM	2890 nM
CNC(=O)c1ccc(N2C(=S)N(c3ccc(C#N)c(C(F)(F)F)c3)C(=O)C2(C)C)cc1F	17100 nM	> 75700 nM
O=C(O)c1ccc(Oc2nccc(-c3c(-c4ccc(F)cc4)ncn3C3CCNCC3)n2)cc1	> 25000 nM	> 25000 nM
C/C(=N\Nc1cc(C)c2ccccc2n1)c1ccccn1	66.2 nM	749 nM
COc1cc2c(cc1OC)-c1ccc3cc4c(cc3c1N(CCCn1ccnc1)C2)OCO4	397 nM	2730 nM
CS(=O)(=O)CCNCc1ccc(-c2ccc3ncnc(Nc4ccc(OCc5ccccc5)c(Br)c4)c3c2)o1	82 nM	1000 nM
N#CC1=C(N)Oc2c(ccc3ccccc23)C1c1ccccc1 (configuration not stated)	75.1 nM	1790 nM
